Results reported in paper PMC6628435, “Chemical Synthesis, Proper Folding, Nav Channel Selectivity Profile and Analgesic Properties of the Spider Peptide Phlotoxin 1” (Toxins, 2019).
Bridge positions count the residues as written; N and C are the ends. Peptide text beside a SMILES is read from it.

What was measured:
human Nav1.7 = target: T1, human Nav1.7 (Homo sapiens, UniProt Q15858); experiment: Automated patch-clamp (Nanion SyncroPatch 384PE) on CHO cells expressing human Nav1.7; type: cell-based; conditions: for block of Nav1.7 inward current: 100 nM toxin, end of application (about 12-13 min), CHO hNav1.7; for Hill value: same dose-response fit as IC50, CHO hNav1.7 automated patch-clamp
T1 construct: expressed in transfected cells
Description: We used a CHO mammalian cell line expressing the human Nav1.7 instead of Xenopus oocytes for the pharmacological evaluation. […] 100-ms pulses from −100 mV to −10 mV were applied at a frequency of 0.2 Hz and various concentrations of PhlTx1 were applied to the cells. […] Using a manual patch clamp, which is better suited to investigate current recovery from block than an automated patch clamp that requires several washing steps, we investigated the reversibility properties of a PhlTx1 block.
CHO cells stably expressing the human Nav1.7 cells were cultured in Dulbecco’s Modified Eagle’s Medium (DMEM) supplemented with 10% fetal calf serum, 1 mM pyruvic acid, 4 mM glutamine, 10 IU/mL penicillin and 10 μg/mL streptomycin (Gibco, Grand Island, NY, USA), and incubated at 37 °C in a 5% CO2 atmosphere. For automated patch-clamp recordings, cells were detached with trypsin and floating single cells were diluted (~300,000 cells/mL) in medium contained (in mM): 4 KCl, 140 NaCl, 5 Glucose, 10 HEPES (pH 7.4, osmolarity 290 mOsm).
Chips with single-hole and high-resistance (~6–7 MΩ) were used for CHO cell recordings. Voltage pulses and whole-cell recordings were achieved using the PatchControl384 v1.5.2 software (Nanion, Munich, Germany) and the Biomek v1.0 interface (Beckman Coulter). Prior recordings, dissociated cells were shaken at 60 RPM in a cell hotel reservoir at 10 °C. After cell catching, sealing, whole-cell formation, liquid application, recording, and data acquisition were all performed sequentially and automatically. […] Whole-cell experiments were done at −100 mV holding potential and at room temperature (18–22 °C), while currents triggered at −10 mV test potential were sampled at 20 kHz. Stimulation frequency was set at 0.2 Hz. Toxins were prepared at various concentrations in the extracellular solution, itself supplemented with 0.3% BSA. […] Compound solutions were diluted 3 times in the patch-clamp recording well by adding 30 μL to 60 μL external solution to reach the final reported concentration and the test volume of 90 μL. Percentages of current inhibitions were measured at the end of a 12- to 15-min application time (12-min for fast blocking toxins; 15-min for slow blocking ones). A single concentration of peptide was tested on each cell for building the full-inhibition curves.

human Nav1.7 channel = conditions: ref [45]; cited from earlier work
[1] = system: formalin-induced spontaneous pain behavior; experiment: Formalin pain test in mice after intrathecal injection; type: in vivo, C57BL/6J mice; conditions: mouse, in vivo

T1 sequence (Q15858 whole entry): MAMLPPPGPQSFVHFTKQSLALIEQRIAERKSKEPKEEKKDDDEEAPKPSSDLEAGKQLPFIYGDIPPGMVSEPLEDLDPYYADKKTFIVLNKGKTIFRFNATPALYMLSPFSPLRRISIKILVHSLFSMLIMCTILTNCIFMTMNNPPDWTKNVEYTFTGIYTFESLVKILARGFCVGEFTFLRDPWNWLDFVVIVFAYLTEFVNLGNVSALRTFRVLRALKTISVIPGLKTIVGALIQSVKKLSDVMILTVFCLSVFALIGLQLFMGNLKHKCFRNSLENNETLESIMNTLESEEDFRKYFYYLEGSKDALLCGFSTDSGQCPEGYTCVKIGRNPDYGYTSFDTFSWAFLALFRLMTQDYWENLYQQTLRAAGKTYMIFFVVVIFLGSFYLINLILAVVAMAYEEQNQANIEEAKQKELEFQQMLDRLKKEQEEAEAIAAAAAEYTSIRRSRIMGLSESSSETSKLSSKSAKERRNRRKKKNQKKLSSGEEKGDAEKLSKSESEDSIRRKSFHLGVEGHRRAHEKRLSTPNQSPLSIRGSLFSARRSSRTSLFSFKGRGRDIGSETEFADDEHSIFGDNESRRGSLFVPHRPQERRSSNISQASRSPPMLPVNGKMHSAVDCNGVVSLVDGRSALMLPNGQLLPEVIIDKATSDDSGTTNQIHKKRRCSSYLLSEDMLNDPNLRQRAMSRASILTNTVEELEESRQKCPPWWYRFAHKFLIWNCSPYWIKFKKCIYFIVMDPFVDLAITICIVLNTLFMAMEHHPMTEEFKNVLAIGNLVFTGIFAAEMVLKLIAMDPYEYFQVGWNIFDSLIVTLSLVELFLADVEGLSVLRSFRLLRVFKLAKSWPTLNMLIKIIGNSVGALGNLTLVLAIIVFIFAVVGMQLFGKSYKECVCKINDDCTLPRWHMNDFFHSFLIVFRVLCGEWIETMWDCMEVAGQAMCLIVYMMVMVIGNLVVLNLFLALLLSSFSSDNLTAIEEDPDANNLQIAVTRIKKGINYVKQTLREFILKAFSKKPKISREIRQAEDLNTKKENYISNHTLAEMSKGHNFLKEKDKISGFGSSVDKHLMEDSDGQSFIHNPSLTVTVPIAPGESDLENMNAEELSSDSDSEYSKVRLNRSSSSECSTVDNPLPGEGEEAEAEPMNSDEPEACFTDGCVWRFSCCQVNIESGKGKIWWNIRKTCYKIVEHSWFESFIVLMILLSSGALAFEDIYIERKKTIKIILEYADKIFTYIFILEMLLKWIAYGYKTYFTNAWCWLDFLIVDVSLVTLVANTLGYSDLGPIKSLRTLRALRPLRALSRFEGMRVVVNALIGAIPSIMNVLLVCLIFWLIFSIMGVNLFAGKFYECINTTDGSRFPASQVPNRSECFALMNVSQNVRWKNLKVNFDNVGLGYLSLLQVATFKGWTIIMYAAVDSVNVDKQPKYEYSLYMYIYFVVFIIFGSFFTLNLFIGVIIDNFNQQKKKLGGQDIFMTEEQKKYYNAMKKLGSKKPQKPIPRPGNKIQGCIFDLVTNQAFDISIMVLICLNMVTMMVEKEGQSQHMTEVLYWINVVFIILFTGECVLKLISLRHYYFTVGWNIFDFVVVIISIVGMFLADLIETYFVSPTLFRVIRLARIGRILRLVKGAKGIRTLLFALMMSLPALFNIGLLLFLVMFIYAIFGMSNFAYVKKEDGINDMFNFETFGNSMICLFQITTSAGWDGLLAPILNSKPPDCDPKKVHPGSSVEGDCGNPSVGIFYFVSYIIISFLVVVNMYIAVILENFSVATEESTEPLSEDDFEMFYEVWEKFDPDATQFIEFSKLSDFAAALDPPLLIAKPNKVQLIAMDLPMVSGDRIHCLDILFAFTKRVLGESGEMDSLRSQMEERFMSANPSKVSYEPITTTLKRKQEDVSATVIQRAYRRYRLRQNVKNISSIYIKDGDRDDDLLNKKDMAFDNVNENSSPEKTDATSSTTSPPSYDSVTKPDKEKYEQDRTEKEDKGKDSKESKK

Compound | IC50 (human Nav1.7) [nM] | block of Nav1.7 inward current (human Nav1.7) | also measured
CC[C@H](C)[C@@H]1NC(=O)[C@H](CC(N)=O)NC(=O)[C@H](CCCNC(=N)N)NC(=O)[C@@H]2CCCN2C(=O)[C@H](Cc2c[nH]c3ccccc23)NC(=O)[C@H](CCCCN)NC(=O)[C@H](CO)NC(=O)[C@H](CCCCN)NC(=O)[C@@H]2CSSC[C@@H]3NC(=O)[C@H](CCCCN)NC(=O)CNC(=O)[C@H](Cc4c[nH]c5ccccc45)NC(=O)[C@H](Cc4ccccc4)NC(=O)[C@H](CCCNC(=N)N)NC(=O)[C@H](C(C)C)NC(=O)[C@@H](NC(=O)[C@@H](N)CC(=O)O)CSSC[C@H](NC(=O)[C@H](CSSC[C@@H](C(=O)N[C@H](C(=O)N[C@@H](Cc4c[nH]c5ccccc45)C(=O)N[C@@H](CC(=O)O)C(=O)NCC(=O)N[C@@H](CO)C(=O)N[C@H](C(=O)O)C(C)C)C(C)C)NC1=O)NC(=O)[C@H](CC(=O)O)NC(=O)[C@H](CO)NC(=O)[C@H]([C@@H](C)O)NC(=O)[C@H](CCC(N)=O)NC(=O)[C@H](CO)NC3=O)C(=O)N1CCC[C@H]1C(=O)N[C@@H](Cc1c[nH]cn1)C(=O)N[C@@H](CC(C)C)C(=O)N[C@@H](C)C(=O)N2 [GrTx1] | 15.3 | about 50% | 
CC[C@H](C)[C@H](NC(=O)[C@H](CCCCN)NC(=O)[C@H](CCCCN)NC(=O)[C@H](CCCCN)NC(=O)[C@@H]1CSSC[C@@H]2NC(=O)[C@H](CCCCN)NC(=O)[C@H](CCCNC(=N)N)NC(=O)[C@H](CCC(=O)O)NC(=O)[C@H](CCC(=O)O)NC(=O)[C@H](CC(=O)O)NC(=O)[C@@H]3CSSC[C@H](NC(=O)[C@H](C(C)C)NC(=O)[C@H](CC(C)C)NC(=O)CNC(=O)[C@H](CCC(=O)O)NC(=O)[C@H](CSSC[C@H](NC(=O)[C@@H](N)Cc4ccc(O)cc4)C(=O)N[C@@H](CCC(N)=O)C(=O)N[C@@H](CCCCN)C(=O)N[C@@H](Cc4c[nH]c5ccccc45)C(=O)N[C@@H](CCSC)C(=O)N[C@@H](Cc4c[nH]c5ccccc45)C(=O)N[C@@H]([C@@H](C)O)C(=O)N3)NC2=O)C(=O)N[C@@H](CCCNC(=N)N)C(=O)N[C@@H](CC(C)C)C(=O)N[C@@H](Cc2c[nH]c3ccccc23)C(=O)N1)C(=O)N[C@@H](CCC(=O)O)C(=O)N[C@@H](Cc1c[nH]c2ccccc12)C(=O)O [GsAFII] (H-YCQKWMWTCDEERKCCEGLVCRLWCKKKIEW-OH; disulfide 2-16, 9-21, 15-25) | 13.6 |  | 
CC[C@H](C)[C@H](NC(=O)[C@H](CCC(=O)O)NC(=O)[C@H](Cc1ccc(O)cc1)NC(=O)[C@H](CCCCN)NC(=O)[C@@H]1CSSC[C@@H]2NC(=O)[C@H](CCC(N)=O)NC(=O)[C@H](CC(=O)O)NC(=O)[C@H](CC(N)=O)NC(=O)[C@H](CO)NC(=O)[C@@H]3CCCN3C(=O)[C@H](CC(N)=O)NC(=O)[C@@H]3CSSC[C@H](NC(=O)[C@H](C(C)C)NC(=O)[C@H](CC(C)C)NC(=O)[C@H](CC(N)=O)NC(=O)[C@H](CO)NC(=O)[C@H](CO)NC(=O)[C@H](CCCCN)NC(=O)[C@H](CSSC[C@H](NC(=O)[C@@H](N)CCC(=O)O)C(=O)N[C@@H](CC(C)C)C(=O)NCC(=O)N[C@@H](Cc4ccccc4)C(=O)NCC(=O)N[C@@H](CCCCN)C(=O)NCC(=O)N3)NC2=O)C(=O)N[C@@H](CO)C(=O)N[C@@H](CCCNC(=N)N)C(=O)N[C@@H](CCCCN)C(=O)N[C@@H](Cc2c[nH]cn2)C(=O)N[C@@H](CCCNC(=N)N)C(=O)N[C@@H](Cc2c[nH]c3ccccc23)C(=O)N1)C(N)=O [HnTx-IV] | 4.3 |  | 
CC(C)C[C@H](NC(=O)[C@H](CCCCN)NC(=O)[C@H](Cc1c[nH]c2ccccc12)NC(=O)[C@H](CCCCN)NC(=O)[C@@H]1CSSC[C@@H]2NC(=O)[C@H](CCC(=O)O)NC(=O)[C@H](CC(N)=O)NC(=O)[C@H](CCCCN)NC(=O)CNC(=O)[C@@H]3CCCN3C(=O)[C@H]([C@@H](C)O)NC(=O)[C@@H]3CSSC[C@H](NC(=O)[C@H](C(C)C)NC(=O)[C@H](CCCNC(=N)N)NC(=O)[C@H](CC(N)=O)NC(=O)[C@@H]4CCCN4C(=O)[C@H](CSSC[C@H](NC(=O)[C@H](C)N)C(=O)N[C@@H](CCCCN)C(=O)NCC(=O)N[C@@H](C(C)C)C(=O)N[C@@H](Cc4ccccc4)C(=O)N[C@@H](CC(=O)O)C(=O)N[C@@H](C)C(=O)N3)NC2=O)C(=O)N[C@@H](CO)C(=O)N[C@@H](CC(=O)O)C(=O)N[C@@H](CCCCN)C(=O)N[C@@H](Cc2c[nH]cn2)C(=O)N[C@@H](CCCCN)C(=O)N[C@@H](Cc2c[nH]c3ccccc23)C(=O)N1)C(=O)O [HwTx-I] (H-ACKGVFDACTPGKNECCPNRVCSDKHKWCKWKL-OH; disulfide 2-17, 9-22, 16-29; N-terminus and C-terminus assumed) |  | incomplete block | time constant of inhibition (τ) (human Nav1.7; 100 nM, mono-exponential fit (PhlTx1 n = 8)): 492 s; Hill value (human Nav1.7): 2.3
CSCC[C@@H]1NC(=O)[C@H](Cc2ccc(O)cc2)NC(=O)[C@H](CCCNC(=N)N)NC(=O)[C@@H](NC(=O)[C@@H](N)CC(=O)O)CSSC[C@@H]2NC(=O)[C@@H]3CSSC[C@@H](C(=O)N[C@@H](C)C(=O)N[C@@H](Cc4c[nH]c5ccccc45)C(=O)N[C@@H](CC(=O)O)C(=O)N[C@@H](Cc4ccccc4)C(=O)N[C@H](C(=O)N[C@@H](Cc4ccccc4)C(=O)N[C@H](C(=O)O)[C@@H](C)O)[C@@H](C)O)NC(=O)[C@H](Cc4ccc(O)cc4)NC(=O)[C@H](CCCCN)NC(=O)[C@H](CCSC)NC(=O)[C@H](CCCCN)NC(=O)[C@H](CCCNC(=N)N)NC(=O)[C@H](CCCCN)NC(=O)[C@H](CSSC[C@H](NC(=O)[C@H](CC(=O)O)NC(=O)CNC(=O)[C@H](Cc4ccccc4)NC1=O)C(=O)N[C@@H](CCC(=O)O)C(=O)N[C@@H](CCCCN)C(=O)N[C@@H](CC(=O)O)C(=O)N[C@@H](CCC(=O)O)C(=O)N[C@@H](CC(=O)O)C(=O)N3)NC(=O)CNC(=O)[C@H](CC(C)C)NC(=O)[C@H](Cc1c[nH]cn1)NC(=O)[C@H](CCCCN)NC2=O [Pn3a] |  | fully insensitive | Hill value (human Nav1.7): 3; IC50 (human Nav1.7 channel): 0.9 nM
CC(C)C[C@@H]1NC(=O)[C@H](Cc2c[nH]c3ccccc23)NC(=O)[C@H](Cc2ccc(O)cc2)NC(=O)[C@H](CCCNC(=N)N)NC(=O)[C@@H](NC(=O)[C@@H](N)CCC(=O)O)CSSC[C@@H]2NC(=O)[C@@H]3CSSC[C@@H](C(=O)N[C@H](C(=O)N[C@@H](Cc4c[nH]c5ccccc45)C(=O)N[C@@H](CC(=O)O)C(=O)NCC(=O)N[C@H](C(=O)N[C@@H](Cc4ccccc4)C(=O)N[C@@H](CO)C(=O)O)[C@@H](C)O)C(C)C)NC(=O)[C@H](Cc4c[nH]c5ccccc45)NC(=O)CNC(=O)[C@H](Cc4c[nH]cn4)NC(=O)[C@H](CCCNC(=N)N)NC(=O)[C@H](CCCNC(=N)N)NC(=O)[C@H](CO)NC(=O)[C@H](CSSC[C@H](NC(=O)CNC(=O)CNC1=O)C(=O)N[C@@H](CO)C(=O)N[C@@H](C)C(=O)NCC(=O)N[C@@H](CCC(N)=O)C(=O)N[C@@H]([C@@H](C)O)C(=O)N3)NC(=O)[C@H](C(C)C)NC(=O)[C@H](CC(C)C)NC(=O)[C@H](Cc1c[nH]cn1)NC(=O)[C@H](CCCCN)NC2=O [ProTx-I] | 7.1 |  | 
CN1CC[C@]23c4c5ccc(O)c4O[C@H]2[C@@H](O)C=C[C@H]3[C@H]1C5 [morphine, reference compound] |  |  | formalin-induced pain behavior (licking), Phase II (inflammation, 10–45 min) [1]: 0
